In brackets after ≈: the same amount, converted by molar mass.
Assays:
Assay type in all cases: functional
[1] = tested on: Staphylococcus aureus; assay: Antimicrobial activity against methicillin-susceptible Staphylococcus aureus 324/08 after 18 hrs by disc-diffusion method; settings: 324/08, 18 h
[2] = tested on: Staphylococcus aureus; assay: Antimicrobial activity against methicillin-susceptible Staphylococcus aureus 322/08 after 18 hrs by disc-diffusion method; settings: 322/08, 18 h
[3] = tested on: Staphylococcus epidermidis; assay: Antimicrobial activity against methicillin-resistant Staphylococcus epidermidis 289/08 after 18 hrs by disc-diffusion method; settings: 289/08, 18 h
[4] = tested on: Staphylococcus aureus; assay: Antimicrobial activity against methicillin-susceptible Staphylococcus aureus 338/08 after 18 hrs by disc-diffusion method; settings: 338/08, 18 h
[5] = tested on: Staphylococcus aureus; assay: Antimicrobial activity against methicillin-susceptible Staphylococcus aureus 328/08 after 18 hrs by disc-diffusion method; settings: 328/08, 18 h
[6] = tested on: Staphylococcus aureus; assay: Antimicrobial activity against methicillin-resistant Staphylococcus aureus 307/08 after 18 hrs by disc-diffusion method; settings: 307/08, 18 h
[7] = tested on: Staphylococcus epidermidis; assay: Antimicrobial activity against methicillin-resistant Staphylococcus epidermidis 317/08 after 18 hrs by disc-diffusion method; settings: 317/08, 18 h
[8] = tested on: Staphylococcus epidermidis; assay: Antimicrobial activity against methicillin-resistant Staphylococcus epidermidis 316/08 after 18 hrs by disc-diffusion method; settings: 316/08, 18 h
[9] = tested on: Staphylococcus aureus; assay: Antimicrobial activity against methicillin-susceptible Staphylococcus aureus 320/08 after 18 hrs by disc-diffusion method; settings: 320/08, 18 h
[10] = tested on: Staphylococcus aureus; assay: Antimicrobial activity against methicillin-resistant Staphylococcus aureus 329/08 after 18 hrs by disc-diffusion method; settings: 329/08, 18 h
[11] = tested on: Staphylococcus aureus; assay: Antimicrobial activity against methicillin-resistant Staphylococcus aureus 309/08 after 18 hrs by disc-diffusion method; settings: 309/08, 18 h
[12] = tested on: Staphylococcus epidermidis; assay: Antimicrobial activity against methicillin-resistant Staphylococcus epidermidis 291/08 after 18 hrs by disc-diffusion method; settings: 291/08, 18 h
[13] = tested on: Staphylococcus aureus; assay: Antimicrobial activity against methicillin-susceptible Staphylococcus aureus 326/08 after 18 hrs by disc-diffusion method; settings: 326/08, 18 h
[14] = tested on: Staphylococcus aureus; assay: Antimicrobial activity against methicillin-resistant Staphylococcus aureus 334/08 after 18 hrs by disc-diffusion method; settings: 334/08, 18 h
[15] = tested on: Staphylococcus epidermidis; assay: Antimicrobial activity against methicillin-resistant Staphylococcus epidermidis 290/08 after 18 hrs by disc-diffusion method; settings: 290/08, 18 h
[16] = tested on: Staphylococcus aureus; assay: Antimicrobial activity against methicillin-resistant Staphylococcus aureus 335/08 after 18 hrs by disc-diffusion method; settings: 335/08, 18 h
[17] = tested on: Staphylococcus aureus; assay: Antimicrobial activity against methicillin-resistant Staphylococcus aureus 331/08 after 18 hrs by disc-diffusion method; settings: 331/08, 18 h
[18] = tested on: Staphylococcus aureus; assay: Antimicrobial activity against methicillin-resistant Staphylococcus aureus 330/08 after 18 hrs by disc-diffusion method; settings: 330/08, 18 h
[19] = tested on: Staphylococcus aureus; assay: Antimicrobial activity against methicillin-resistant Staphylococcus aureus 333/08 after 18 hrs by disc-diffusion method; settings: 333/08, 18 h
[20] = tested on: Staphylococcus epidermidis; assay: Antimicrobial activity against methicillin-resistant Staphylococcus epidermidis 318/08 after 18 hrs by disc-diffusion method; settings: 318/08, 18 h
[21] = tested on: Staphylococcus aureus; assay: Antimicrobial activity against methicillin-resistant Staphylococcus aureus 308/08 after 18 hrs by disc-diffusion method; settings: 308/08, 18 h
[22] = tested on: Staphylococcus epidermidis; assay: Antimicrobial activity against methicillin-resistant Staphylococcus epidermidis 293/08 after 18 hrs by disc-diffusion method; settings: 293/08, 18 h
[23] = tested on: Staphylococcus aureus; assay: Antimicrobial activity against methicillin-susceptible Staphylococcus aureus 327/08 after 18 hrs by disc-diffusion method; settings: 327/08, 18 h
[24] = tested on: Staphylococcus aureus; assay: Antimicrobial activity against methicillin-susceptible Staphylococcus aureus 319/08 after 18 hrs by disc-diffusion method; settings: 319/08, 18 h
[25] = tested on: Staphylococcus aureus; assay: Antimicrobial activity against methicillin-resistant Staphylococcus aureus 332/08 after 18 hrs by disc-diffusion method; settings: 332/08, 18 h
[26] = tested on: Staphylococcus epidermidis; assay: Antimicrobial activity against methicillin-resistant Staphylococcus epidermidis 311/08 after 18 hrs by disc-diffusion method; settings: 311/08, 18 h
[27] = tested on: Staphylococcus aureus; assay: Antimicrobial activity against methicillin-susceptible Staphylococcus aureus 321/08 after 18 hrs by disc-diffusion method; settings: 321/08, 18 h
[28] = tested on: Staphylococcus aureus; assay: Antimicrobial activity against methicillin-susceptible Staphylococcus aureus 339/08 after 18 hrs by disc-diffusion method; settings: 339/08, 18 h
[29] = tested on: Staphylococcus epidermidis; assay: Antimicrobial activity against methicillin-resistant Staphylococcus epidermidis 292/08 after 18 hrs by disc-diffusion method; settings: 292/08, 18 h
[30] = tested on: Staphylococcus epidermidis; assay: Antimicrobial activity against methicillin-resistant Staphylococcus epidermidis 315/08 after 18 hrs by disc-diffusion method; settings: 315/08, 18 h

Structure (SMILES): CC[C@@]1([C@H]2O[C@@H]([C@H]3O[C@@](O)(CO)[C@H](C)C[C@@H]3C)C[C@@H]2C)CC[C@@H]([C@]2(C)CC[C@]3(C[C@H](O)[C@@H](C)[C@@H]([C@@H](C)[C@@H](OC)[C@H](C)C(=O)Nc4ccccc4)O3)O2)O1
- MIC [1]: 8.37 µM (≈ 6.24 µg/mL)
- MIC [2]: 16.8 µM (≈ 12.5 µg/mL)
- MIC [3]: 8.37 µM (≈ 6.24 µg/mL)
- MIC [4]: 8.37 µM (≈ 6.24 µg/mL)
- MIC [5]: 33.5 µM (≈ 25 µg/mL)
- MIC [6]: 8.37 µM (≈ 6.24 µg/mL)
- MIC [7]: 8.37 µM (≈ 6.24 µg/mL)
- MIC [8]: 8.37 µM (≈ 6.24 µg/mL)
- MIC [9]: 16.8 µM (≈ 12.5 µg/mL)
- MIC [10]: 8.37 µM (≈ 6.24 µg/mL)
- MIC [11]: 8.37 µM (≈ 6.24 µg/mL)
- MIC [12]: 8.37 µM (≈ 6.24 µg/mL)
- MIC [13]: 8.37 µM (≈ 6.24 µg/mL)
- MIC [14]: 8.37 µM (≈ 6.24 µg/mL)
- MIC [15]: 16.8 µM (≈ 12.5 µg/mL)
- MIC [16]: 8.37 µM (≈ 6.24 µg/mL)
- MIC [17]: 8.37 µM (≈ 6.24 µg/mL)
- MIC [18]: 8.37 µM (≈ 6.24 µg/mL)
- MIC [19]: 8.37 µM (≈ 6.24 µg/mL)
- MIC [20]: 33.5 µM (≈ 25 µg/mL)
- MIC [21]: 8.37 µM (≈ 6.24 µg/mL)
- MIC [22]: 8.37 µM (≈ 6.24 µg/mL)
- MIC [23]: 8.37 µM (≈ 6.24 µg/mL)
- MIC [24]: 8.37 µM (≈ 6.24 µg/mL)
- MIC [25]: 8.37 µM (≈ 6.24 µg/mL)
- MIC [26]: 8.37 µM (≈ 6.24 µg/mL)
- MIC [27]: 16.8 µM (≈ 12.5 µg/mL)
- MIC [28]: 33.5 µM (≈ 25 µg/mL)
- MIC [29]: 16.8 µM (≈ 12.5 µg/mL)
- MIC [30]: 8.37 µM (≈ 6.24 µg/mL)

Structure (SMILES): CC[C@@]1([C@@H]2O[C@@H]([C@H]3O[C@@](O)(CO)[C@H](C)C[C@@H]3C)C[C@@H]2C)CC[C@H]([C@]2(C)CC[C@]3(C[C@H](O)[C@@H](C)[C@@H]([C@@H](C)[C@@H](OC)[C@H](C)C(=O)O)O3)O2)O1 [MONENSIN]
- MIC [1]: 1.49 µM (≈ 1 µg/mL)
- MIC [2]: 2.98 µM (≈ 2 µg/mL)
- MIC [3]: 2.98 µM (≈ 2 µg/mL)
- MIC [4]: 2.98 µM (≈ 2 µg/mL)
- MIC [5]: 2.98 µM (≈ 2 µg/mL)
- MIC [6]: 2.98 µM (≈ 2 µg/mL)
- MIC [7]: 1.49 µM (≈ 1 µg/mL)
- MIC [8]: 1.49 µM (≈ 1 µg/mL)
- MIC [9]: 2.98 µM (≈ 2 µg/mL)
- MIC [10]: 2.98 µM (≈ 2 µg/mL)
- MIC [11]: 2.98 µM (≈ 2 µg/mL)
- MIC [12]: 2.98 µM (≈ 2 µg/mL)
- MIC [13]: 2.98 µM (≈ 2 µg/mL)
- MIC [14]: 1.49 µM (≈ 1 µg/mL)
- MIC [15]: 2.98 µM (≈ 2 µg/mL)
- MIC [16]: 1.49 µM (≈ 1 µg/mL)
- MIC [17]: 1.49 µM (≈ 1 µg/mL)
- MIC [18]: 1.49 µM (≈ 1 µg/mL)
- MIC [19]: 1.49 µM (≈ 1 µg/mL)
- MIC [20]: 5.96 µM (≈ 4 µg/mL)
- MIC [21]: 2.98 µM (≈ 2 µg/mL)
- MIC [22]: 1.49 µM (≈ 1 µg/mL)
- MIC [23]: 2.98 µM (≈ 2 µg/mL)
- MIC [24]: 2.98 µM (≈ 2 µg/mL)
- MIC [25]: 1.49 µM (≈ 1 µg/mL)
- MIC [26]: 1.49 µM (≈ 1 µg/mL)
- MIC [27]: 2.98 µM (≈ 2 µg/mL)
- MIC [28]: 5.96 µM (≈ 4 µg/mL)
- MIC [29]: 2.98 µM (≈ 2 µg/mL)
- MIC [30]: 1.49 µM (≈ 1 µg/mL)

— ChEMBL document CHEMBL1240437, “Structural characterization and antibacterial activity against clinical isolates of Staphylococcus of N-phenylamide of monensin A and its 1:1 complexes with monovalent cations” (2010)
